Publication PMC10042772 (Targeted Oncology, 2023)

How the values were obtained:
CBP/p300 over BRD4 = conditions: selective CBP/p300 binder; cited from earlier work
[1] = cited from earlier work
MDA-MB-453 cells = test: CellTiter-Glo 2.0 viability assay, 10 days; assay type: cell-based, human; conditions: MDA-MB-453, 10 days of continuous exposure

Row | SMILES | selectivity over BRD4 and other BRD and BET family members (CBP/p300 over BRD4) [fold] | microsomal stability [1] | times less active than FT-6876 at inhibiting proliferation (MDA-MB-453 cells) [times]
1 | COc1ccc(CCc2nc3cc(-c4c(C)noc4C)ccc3n2C[C@H](C)N2CCOCC2)cc1Cl [SGC-CBP30] | 40 | poor microsomal stability | –
2 | CNC(=O)c1ccc(N2C(=S)N(c3ccc(C#N)c(C(F)(F)F)c3)C(=O)C2(C)C)cc1F [Enzalutamide, enzalutamide] | – | – | 45
